{"source": "patent US20160095802A1", "about": "“COMBINATION OF PETROSELINIC ACID AND ZINC FOR ORAL ADMINISTRATION FOR HAIR AGING CONTROL” (NUTRICOS TECHNOLOGIES, priority 2013, published 2016)", "test_system": "Lipoxin A4 production in human mononuclear cells", "assay": "Lipoxin A4 production in stimulated human mononuclear blood cells in vitro (LC-MS of supernatants)", "type": "cell-based", "conditions": "coriander oil 0.25 mg/ml, zinc gluconate 0.005 mg/ml; 30 min pre-incubation, then 2 hours stimulation with phorbol myristate 0.05 μM + calcium ionophore 1 μM + DHA/EPA 1 μg/mL each; triplicates", "method": "Mononuclear blood cells are cultured under 5% CO2 and at 37° C. in a serum-free medium for macrophages (SFM Macrophage; Invitrogen 12065074) for 24 hours. After this step, the medium is replaced with the same fresh test medium also containing the active agents at the various doses for 30 minutes in the presence of the various products to be evaluated (coriander oil 0.25 mg/ml, zinc gluconate ([…]. The inflammatory response was then triggered in the presence of phorbol myristate (0.05 μM) and calcium ionophore (1 μM) and a lipid substrate mixture composed of docosahexaenoic acid (DHA—1 μg/mL) and eicosapentaenoic acid (EPA—1 μg/mL).\nThe supernatants were then collected after 2 hours of stimulation and frozen at −80° C. before preparation for analysis by mass spectrometry.\nExperimental triplicates (three wells) were prepared per experimental condition. Into each culture plate was placed a control corresponding to cells stimulated with the PMA/A23187 mixture and/or with addition of the equimolar mixture of fatty acids.\nThe thawed supernatants were concentrated by solid-phase extraction (SPE) and taken up in methanol before spectrometric analysis. The analytical method used consists in separating the various analytes by high-pressure liquid chromatography as a function of their retention time and in quantifying them by mass spectrometry. […]"}
{"substance": "Zinc gluconate", "values": [{"measurement": "Level of lipoxin A4 production (% modulation relative to the control)", "result": "−5", "unit": "%"}]}
